Patent US20260184726A1, “HETEROCYCLIC COMPOUNDS AS KINASE INHIBITORS, COMPOSITIONS, AND METHODS OF USE THEREOF” (JS INNOMED HOLDINGS LTD., priority 2022, published 2026)

Legend:
[1] = system: BAF3 cells; assay: BAF3 Cell Proliferation Assay (CellTiter-Glo, without RET driven, IL-3); format: cell-based; conditions: Mus musculus; growth inhibition in BAF3 cells, 72 hours, with IL-3; read-out: BAF3 Cellular Activity
Experimental: Compounds disclosed herein were tested for the inhibition BAF3 cells proliferation without RET driven by CellTiter-Glo assay. In this assay, a complete media was prepared by adding 10% fetal bovine serum and 1 ng/ml IL-3 to RPMI-1640 medium (Life technology) for BAF3 cells. BAF3 cells were added to each of 88 wells of a 96 well plate at a seeding density of 2,000 cells/well/95 μL. The cells were allowed to attach to the plate by incubating at 37° C. for 24 hours. The compound was dissolved in DMSO (SIGMA). A solution of test compound was prepared in complete media by serial dilution to obtain the following concentrations: 200 μM, 66.7 μM, 22.2 μM, 7.4 μM, 2.5 μM, 0.82 μM, 0.27 μM, 0.091 μM and […]. The test compound solution (5 μL) was added to each of 80 cell-containing wells. The final concentrations of the compound were following: 10 μM, 3.33 μM, 1.11 μM, 0.37 μM, 0.12 μM, 0.041 μM, 0.014 μM, 0.0046 μM and 0.0015 μM. The final concentration of DMSO is 0.1%. To the 8 remaining cell-containing wells, only complete media (containing 0.1% DMSO) was added to form a control group in order to measure maximal proliferation. To the remaining 8 empty wells, complete media was added to for a vehicle control group in order to measure background. The plates were incubated at 37° C. for 72 hours. 50 μl of CellTiter-Glo® Reagent was added to each well. The contents were mixed for 2 minutes on an orbital shaker to induce cell lysis, and then were incubated at room temperature for 10 minutes to stabilize luminescent signal. Luminescence was recorded on Paradigm. Cell viability (CV %) was calculated relative to vehicle (DMSO) treated control wells. The IC50 was calculated using GraphPad Prism.

[2] = target: T1, BAF3-KIF5B-RET cells (Homo sapiens, UniProt P07949); assay: BAF3-KIF5B-RET Cell Proliferation Assay (CellTiter-Glo); format: cell-based; conditions: growth inhibition, 72 hours; Table 2; read-out: BA/F3-KIF5B-RET Cellular activity
T1 construct: fused on or other part: P33176 (Kinesin-1 heavy chain)
Experimental: Compounds disclosed herein were tested for the inhibition of RET by a cancer cell proliferation assay commonly known as CellTiter-Glo assay. In this assay, a complete media was prepared by adding 10% fetal bovine serum to RPMI-1640 medium (Life technology) for RET-driven cancer cells (BAF3-FIF5B-RET, Ba/F3-KIF5B-RET-G810R, Ba/F3-TEL-RET-M918T or Ba/F3-KIF5B-RET-V804M). Individual RET-driven type of cells were added to each of 88 wells of a 96 well plate at a seeding density of 2,000 cells/well/95 μL. The cells were allowed to attach to the plate by incubating at 37° C. for 24 hours. The compound was dissolved in DMSO (SIGMA). A solution of test compound was prepared in complete media by serial dilution to obtain the following concentrations: 20 μM, 6.67 μM, 2.22 μM, 0.74 μM, 0.25 μM, 0.082 μM, 0.027 μM, 0.0091 μM and 0.0030 μM. The test compound solution (5 μL) was added to each of 80 cell-containing wells. The final concentrations of the compound were following: 1 μM, 0.33 μM, 0.11 μM, 0.037 μM, 0.012 μM, 0.0041 μM, 0.0014 μM, 0.00046 μM and 0.00015 μM. The final concentration of DMSO is 0.1%. To the 8 remaining cell-containing wells, only complete media (containing 0.1% DMSO) was added to form a control group in order to measure maximal proliferation. To the remaining 8 empty wells, complete media was added to for a vehicle control group in order to measure background. The plates were incubated at 37° C. for 72 hours. 50 μl of CellTiter-Glo® Reagent was added to each well. Mix contents for 2 minutes on an orbital shaker to induce cell lysis. Incubate at room temperature for 10 minutes to stabilize luminescent signal. Record luminescence on Paradigm. Cell viability (CV %) was calculated relative to vehicle (DMSO) treated control wells. The IC50 was calculated using GraphPad Prism.

T1 sequence (P07949 whole entry, change not shown, the tested form may be a part): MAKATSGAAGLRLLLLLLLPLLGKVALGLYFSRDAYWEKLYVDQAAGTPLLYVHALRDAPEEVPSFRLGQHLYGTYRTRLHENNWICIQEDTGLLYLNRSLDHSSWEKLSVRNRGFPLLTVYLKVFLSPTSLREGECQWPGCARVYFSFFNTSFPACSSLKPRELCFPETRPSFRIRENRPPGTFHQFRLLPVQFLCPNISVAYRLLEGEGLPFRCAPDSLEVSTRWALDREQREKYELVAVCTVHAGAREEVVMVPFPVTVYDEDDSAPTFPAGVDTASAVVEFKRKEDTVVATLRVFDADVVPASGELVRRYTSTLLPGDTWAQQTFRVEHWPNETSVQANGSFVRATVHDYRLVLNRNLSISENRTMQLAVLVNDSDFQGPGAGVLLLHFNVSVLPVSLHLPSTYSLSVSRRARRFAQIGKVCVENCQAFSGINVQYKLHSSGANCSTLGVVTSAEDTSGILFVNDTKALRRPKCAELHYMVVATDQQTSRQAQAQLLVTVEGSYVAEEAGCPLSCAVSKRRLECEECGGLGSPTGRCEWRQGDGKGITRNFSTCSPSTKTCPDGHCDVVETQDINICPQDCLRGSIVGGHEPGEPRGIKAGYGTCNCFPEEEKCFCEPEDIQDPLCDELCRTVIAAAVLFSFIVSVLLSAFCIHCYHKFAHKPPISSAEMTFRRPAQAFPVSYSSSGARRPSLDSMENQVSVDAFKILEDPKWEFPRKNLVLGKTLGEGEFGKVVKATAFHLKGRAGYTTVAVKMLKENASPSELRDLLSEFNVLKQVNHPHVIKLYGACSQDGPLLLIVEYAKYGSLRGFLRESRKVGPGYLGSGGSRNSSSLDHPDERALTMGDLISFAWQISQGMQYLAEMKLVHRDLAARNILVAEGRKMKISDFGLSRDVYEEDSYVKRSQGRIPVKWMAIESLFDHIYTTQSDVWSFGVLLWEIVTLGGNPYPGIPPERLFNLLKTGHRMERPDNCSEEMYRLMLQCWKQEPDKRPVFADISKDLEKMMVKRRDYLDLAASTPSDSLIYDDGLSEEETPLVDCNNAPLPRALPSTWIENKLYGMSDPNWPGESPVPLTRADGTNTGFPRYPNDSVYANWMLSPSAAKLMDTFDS

SMILES	IC50 [1]	GI50 [2]
COc1ccc(CN2C3CC2CN(c2cnc(-c4cc(-c5ccc(C(C)(C)O)cn5)cn5ncc(C#N)c45)cn2)C3)cn1 [Example 1, 6-(5-(2-hydroxypropan-2-yl)pyridin-2-yl)-4-(5-(6-((6-methoxypyridin-3-yl)methyl)-3,6-diazabicyclo[3.1.1]heptan-3-yl)pyrazin-2-yl)pyrazolo[1,5-a]pyridine-3-carbonitrile]	1020 nM	1.8 nM
COc1ccc(C(=O)NC23CC4CC(C2)N(c2cnc(-c5cc(-c6ccc(C(C)(C)O)cn6)cn6ncc(C#N)c56)cn2)C(C4)C3)cn1 [Example 2, N-((1R,3S,5s,7s)-2-(5-(3-cyano-6-(5-(2-hydroxypropan-2-yl)pyridin-2-yl)pyrazolo[1,5-a]pyridin-4-yl)pyrazin-2-yl)-2-azaadamantan-5-yl)-6-methoxynicotinamide]	362 nM	8.9 nM
CC(C)(O)c1ccc(-c2cc(-c3ccc(N4C[C@@H]5[C@H](C4)[C@@H]5NC(=O)c4ncccc4Cl)nc3)c3c(C#N)cnn3c2)nc1 [Example 3, 3-chloro-N-((1R,5S,6r)-3-(5-(3-cyano-6-(5-(2-hydroxypropan-2-yl)pyridin-2-yl)pyrazolo[1,5-a]pyridin-4-yl)pyridin-2-yl)-3-azabicyclo[3.1.0]hexan-6-yl)picolinamide]	> 10000 nM	110 nM
CC(C)(O)c1ccc(-c2cc(-c3cnc(N4C[C@@H]5C[C@@](C)(NC(=O)c6ncccc6Cl)C[C@@H]5C4)cn3)c3c(C#N)cnn3c2)nc1 [Example 6, 3-chloro-N-((3aR,5s,6aS)-2-(5-(3-cyano-6-(5-(2-hydroxypropan-2-yl)pyridin-2-yl)pyrazolo[1,5-a]pyridin-4-yl)pyrazin-2-yl)-5-methyloctahydrocyclopenta[c]pyrrol-5-yl)picolinamide]	38.6 nM	3.5 nM
COc1ccc(CN2C3CC2CN(c2ccc(-c4cc(-c5cncc(C(C)(C)O)c5)cn5ncc(C#N)c45)cn2)C3)cn1 [Example 7, 6-(5-(2-hydroxypropan-2-yl)pyridin-3-yl)-4-(6-(6-((6-methoxypyridin-3-yl)methyl)-3,6-diazabicyclo[3.1.1]heptan-3-yl)pyridin-3-yl)pyrazolo[1,5-a]pyridine-3-carbonitrile]	> 10000 nM	48.1 nM
COc1ccc(CN2C3CC2CN(c2ccc(-c4cc(-c5ccc(C(C)(C)N)nc5)cn5ncc(C#N)c45)cn2)C3)cn1 [Example 14, 6-(6-(2-aminopropan-2-yl)pyridin-3-yl)-4-(6-(6-((6-methoxypyridin-3-yl)methyl)-3,6-diazabicyclo[3.1.1]heptan-3-yl)pyridin-3-yl)pyrazolo[1,5-a]pyridine-3-carbonitrile]	1000 nM	2.8 nM
COc1ccc(CN2C3CC2CN(c2ccc(-c4cc(-c5cnc(C(C)(C)O)cn5)cn5ncc(C#N)c45)cn2)C3)cn1 [Example 15, 6-(5-(2-hydroxypropan-2-yl)pyrazin-2-yl)-4-(6-(6-((6-methoxypyridin-3-yl)methyl)-3,6-diazabicyclo[3.1.1]heptan-3-yl)pyridin-3-yl)pyrazolo[1,5-a]pyridine-3-carbonitrile]	2600 nM	3.9 nM
COc1ccc(CN2C3CC2CN(c2ccc(-c4cc(-c5ccc(C(C)(C)N)cn5)cn5ncc(C#N)c45)cn2)C3)cn1 [Example 16, 6-(5-(2-aminopropan-2-yl)pyridin-2-yl)-4-(6-(6-((6-methoxypyridin-3-yl)methyl)-3,6-diazabicyclo[3.1.1]heptan-3-yl)pyridin-3-yl)pyrazolo[1,5-a]pyridine-3-carbonitrile]	1080 nM	2.2 nM
COc1ccc(CN2C3CC2CN(c2ccc(-c4cc(-c5ccc(C6(N)CC6)cn5)cn5ncc(C#N)c45)cn2)C3)cn1 [Example 17, 6-(5-(1-aminocyclopropyl)pyridin-2-yl)-4-(6-(6-((6-methoxypyridin-3-yl)methyl)-3,6-diazabicyclo[3.1.1]heptan-3-yl)pyridin-3-yl)pyrazolo[1,5-a]pyridine-3-carbonitrile]	2770 nM	4.2 nM
